Entries after “also recorded” stand apart in the source; their conditions may differ. Values belong to the compound of their own block, whether it stands above or below them.
Tests used:
[1] = target: TTR/Aβ(1–42) complex (Homo sapiens, UniProt P02766); experiment: ITC, ternary complex: [TTR + stabilizer] titrated with Aβ; assay type: binding; conditions: compared with TTR/Aβ(1–42) without stabilizer
[2] = target: TTR/Aβ(12–28) complex (Homo sapiens, UniProt P02766); experiment: as above; assay type: binding; conditions: compared with TTR + Aβ(12–28) without stabilizer
[3] = tested on: mice model of AD; conditions: in vivo administration; cited from earlier work
[4] = target: TTR (Homo sapiens, UniProt P02766); experiment: ITC, binary complex TTR + Aβ peptide; assay type: binding; conditions: thermograms of binary complexes; HEPES/glycine pH 7.4, 5% DMSO, 25 °C

- chaperoning effect on the TTR/Aβ(1–42) interaction (in words) [1]: cooperative effect
- effect of the stabilizer on the TTR/Aβ(12–28) complex (in words) [2]: stabilizing
Compound: O=C(O)c1cc(-c2ccc(F)cc2F)cc(I)c1O [IDIF, 2',4'-difluoro-4-hydroxy-5-iodo-1,1'-biphenyl-3-carboxylic acid]
- effect in AD mice (brain Aβ, cognition) [3]: decrease in brain Aβ levels and deposition

- chaperoning effect on the TTR/Aβ(1–42) interaction (in words) [1]: chaperoning effect could not be observed
Compound: O=C(O)c1cc(-c2ccc(F)cc2F)ccc1O [Diflunisal, 5-(2,4-difluorophenyl)-2-hydroxy-benzoic acid]
- effect of the stabilizer on the TTR/Aβ(12–28) complex (in words) ([2]; listed as diflunisal (1)): do not enhance the TTR/Aβ interaction; also recorded: negligible

- interaction with TTR by ITC (in words) [4]: no significant interaction
Compound: EDVG SNKGA IIGLM [Aβ(25–35) (8)]

The remaining lines, values behind:

Compound: Y EVHHQ KLVFF [Aβ(10–20) (6)]
- interaction with TTR by ITC (in words) [4]: very low enthalpy change

Compound: O=C(O)c1ccc2nc(-c3cc(Cl)cc(Cl)c3)oc2c1 [Tafamidis, 2-(3,5-dichlorophenyl)-1,3-benzoxazole-6-carboxylic acid]
- chaperoning effect on the TTR/Aβ(1–42) interaction (in words) ([1]; listed as Tafamidis (2)): negligible effect; also recorded: chaperoning effect could not be observed; also recorded: not detected
- effect of the stabilizer on the TTR/Aβ(12–28) complex (in words) ([2]; listed as Tafamidis (2)): do not enhance the TTR/Aβ interaction; also recorded: negligible

Compound: DAEFR HDSGY E [Aβ(1–11) (5)]
- interaction with TTR by ITC (in words) [4]: no significant interaction

Reference: publication PMC7115756 (Journal of Medicinal Chemistry, 2020)
